According to patent publication US20200368247A1, “CENICRIVIROC FOR THE TREATMENT OF FIBROSIS” (Tobira Therapeutics, Inc., priority 2014, published 2020):

Experiment: Study 202 treatment-emergent laboratory abnormalities (DAIDS grade)
Format: in vivo, human
Description: The 12th subject (Subject 42001) had 2 consecutive CPK elevations (Grade 3 followed by Grade 4) that returned to normal values while continuing treatment at a subsequent visit. None of the CPK elevations were associated with clinical symptoms; no subjects discontinued due to CPK elevations and there were no differences in AEs related to musculoskeletal disorders between the CVC and EFV arms.
The number of subjects with graded treatment-emergent laboratory abnormalities in selected liver parameters of interest is shown in Table 34. No Grade 4 ALT or AST elevations were observed. Except for one Grade 3 AST elevation, all ALT and AST elevations were Grade 1 or Grade 2. […] All abnormalities in bilirubin were Grade 1 or Grade 2. […]

[1] = All CVC (N = 115), EFV (N = 28)
[2] = All CVC (N = 115), EFV (N = 28), through Week 48

O=C1Nc2ccc(Cl)cc2[C@@](C#CC2CC2)(C(F)(F)F)O1 [EFV, efavirenz, reference compound]
ALT abnormality, worst Grade 1 [1]: 2 (7%) n (%) | ALT abnormality, worst Grade 2 [1]: 0 n (%) | ALT abnormality, worst Grade 3 [1]: 0 n (%) | ALT abnormality, worst Grade 4 [1]: 0 n (%) | AST abnormality, worst Grade 1 [1]: 3 (11%) n (%) | AST abnormality, worst Grade 2 [1]: 0 n (%) | AST abnormality, worst Grade 3 [1]: 0 n (%) | AST abnormality, worst Grade 4 [1]: 0 n (%) | Alanine aminotransferase (ALT) abnormality, any worst grade [1]: 2 (7%) n (%) | Aspartate aminotransferase (AST) abnormality, any worst grade [1]: 3 (11%) n (%) | Bilirubin abnormality, any worst grade [1]: 1 (4%) n (%) | Bilirubin abnormality, worst Grade 1 [1]: 1 (4%) n (%) | Bilirubin abnormality, worst Grade 2 [1]: 0 n (%) | Bilirubin abnormality, worst Grade 3 [1]: 0 n (%) | Bilirubin abnormality, worst Grade 4 [1]: 0 n (%) | AST increased, Grade 3 [2]: 0 n (%) | AST increased, Grade 4 [2]: 0 n (%) | Any Grade 3 laboratory abnormality [2]: 3 (11%) n (%) | Any Grade 3 or Grade 4 laboratory abnormality [2]: 4 (14%) n (%) | Any Grade 4 laboratory abnormality [2]: 1 (4%) n (%) | Aspartate aminotransferase (AST) increased (Grade 3 or 4) [2]: 0 n (%) | CPK increased, Grade 3 [2]: 2 (7%) n (%) | CPK increased, Grade 4 [2]: 0 n (%) | Creatine phosphokinase (CPK) increased (Grade 3 or 4) [2]: 2 (7%) n (%) | Fibrinogen decreased (Grade 3 or 4) [2]: 0 n (%) | Fibrinogen decreased, Grade 3 [2]: 0 n (%) | Fibrinogen decreased, Grade 4 [2]: 0 n (%) | Hemoglobin decreased (Grade 3 or 4) [2]: 0 n (%) | Hemoglobin decreased, Grade 3 [2]: 0 n (%) | Hemoglobin decreased, Grade 4 [2]: 0 n (%) | Neutrophils decreased (Grade 3 or 4) [2]: 1 (4%) n (%) | Neutrophils decreased, Grade 3 [2]: 0 n (%) | Neutrophils decreased, Grade 4 [2]: 1 (4%) n (%) | Phosphate decreased (Grade 3 or 4) [2]: 1 (4%) n (%) | Phosphate decreased, Grade 3 [2]: 1 (4%) n (%) | Phosphate decreased, Grade 4 [2]: 0 n (%) | Prothrombin time/international normalized ratio increased (Grade 3 or 4) [2]: 0 n (%) | Prothrombin time/international normalized ratio increased, Grade 3 [2]: 0 n (%) | Prothrombin time/international normalized ratio increased, Grade 4 [2]: 0 n (%) | Any graded (Grade 1-4) laboratory abnormality, % (EFV): 89% | Worst Grade 1 laboratory abnormality, % (EFV): 46% | Worst Grade 2 laboratory abnormality, % (EFV): 29% | Worst Grade 3 laboratory abnormality, % (EFV): 11% | Worst Grade 4 laboratory abnormality, % (EFV): 4%
